Measurements reported in ChEMBL document CHEMBL4765227, “Hit to lead optimization of a series of N-[4-(1,3-benzothiazol-2-yl)phenyl]acetamides as monoacylglycerol lipase inhibitors with potential anticancer activity” (Eur J Med Chem, 2016).

Legend:
Type in all cases: functional
Conditions in all cases: read-out: GI
NCI-H23 = experiment: Growth inhibition of human NCI-H23 cells at 10 uM incubated for 48 hrs by sulforhodamine B assay relative to control
OVCAR-5 = experiment: Growth inhibition of human OVCAR-5 cells at 10 uM incubated for 48 hrs by sulforhodamine B assay relative to control
OVCAR-3 = experiment: Growth inhibition of human OVCAR-3 cells at 10 uM incubated for 48 hrs by sulforhodamine B assay relative to control
COLO 205 = experiment: Growth inhibition of human COLO 205 cells at 10 uM incubated for 48 hrs by sulforhodamine B assay relative to control
NCI-H226 = experiment: Growth inhibition of human NCI-H226 cells at 10 uM incubated for 48 hrs by sulforhodamine B assay relative to control
UACC-257 = experiment: Growth inhibition of human UACC-257 cells at 10 uM incubated for 48 hrs by sulforhodamine B assay relative to control
CCRF-CEM = experiment: Growth inhibition of human CCRF-CEM cells at 10 uM incubated for 48 hrs by sulforhodamine B assay relative to control
RXF 393 = experiment: Growth inhibition of human RXF 393 cells at 10 uM incubated for 48 hrs by sulforhodamine B assay relative to control
HOP-92 = experiment: Growth inhibition of human HOP-92 cells at 10 uM incubated for 48 hrs by sulforhodamine B assay relative to control
HCT-116 = experiment: Growth inhibition of human HCT-116 cells at 10 uM incubated for 48 hrs by sulforhodamine B assay relative to control
IGROV-1 = experiment: Growth inhibition of human IGROV-1 cells at 10 uM incubated for 48 hrs by sulforhodamine B assay relative to control
HT-29 = experiment: Growth inhibition of human HT-29 cells at 10 uM incubated for 48 hrs by sulforhodamine B assay relative to control
Malme-3M = experiment: Growth inhibition of human Malme-3M cells at 10 uM incubated for 48 hrs by sulforhodamine B assay relative to control
MOLT-4 = experiment: Growth inhibition of human MOLT-4 cells at 10 uM incubated for 48 hrs by sulforhodamine B assay relative to control
SNB-75 = experiment: Growth inhibition of human SNB-75 cells at 10 uM incubated for 48 hrs by sulforhodamine B assay relative to control
MDA-MB-435 = experiment: Growth inhibition of human MDA-MB-435 cells at 10 uM incubated for 48 hrs by sulforhodamine B assay relative to control
OVCAR-8 = experiment: Growth inhibition of human OVCAR-8 cells at 10 uM incubated for 48 hrs by sulforhodamine B assay relative to control
SF-295 = experiment: Growth inhibition of human SF-295 cells at 10 uM incubated for 48 hrs by sulforhodamine B assay relative to control
HL-60(TB) = experiment: Growth inhibition of human HL-60(TB) cells at 10 uM incubated for 48 hrs by sulforhodamine B assay relative to control
HCC 2998 = experiment: Growth inhibition of human HCC 2998 cells at 10 uM incubated for 48 hrs by sulforhodamine B assay relative to control
SNB-19 = experiment: Growth inhibition of human SNB-19 cells at 10 uM incubated for 48 hrs by sulforhodamine B assay relative to control
KM12 = experiment: Growth inhibition of human KM12 cells at 10 uM incubated for 48 hrs by sulforhodamine B assay relative to control
NCI-H522 = experiment: Growth inhibition of human NCI-H522 cells at 10 uM incubated for 48 hrs by sulforhodamine B assay relative to control
HCT-15 = experiment: Growth inhibition of human HCT-15 cells at 10 uM incubated for 48 hrs by sulforhodamine B assay relative to control
M14 = experiment: Growth inhibition of human M14 cells at 10 uM incubated for 48 hrs by sulforhodamine B assay relative to control
SF-268 = experiment: Growth inhibition of human SF-268 cells at 10 uM incubated for 48 hrs by sulforhodamine B assay relative to control
OVCAR-4 = experiment: Growth inhibition of human OVCAR-4 cells at 10 uM incubated for 48 hrs by sulforhodamine B assay relative to control
BT-549 = experiment: Growth inhibition of human BT-549 cells at 10 uM incubated for 48 hrs by sulforhodamine B assay relative to control
K562 = experiment: Growth inhibition of human K562 cells at 10 uM incubated for 48 hrs by sulforhodamine B assay relative to control
SN12C = experiment: Growth inhibition of human SN12C cells at 10 uM incubated for 48 hrs by sulforhodamine B assay relative to control
UACC-62 = experiment: Growth inhibition of human UACC-62 cells at 10 uM incubated for 48 hrs by sulforhodamine B assay relative to control
TK-10 = experiment: Growth inhibition of human TK-10 cells at 10 uM incubated for 48 hrs by sulforhodamine B assay relative to control
SF-539 = experiment: Growth inhibition of human SF-539 cells at 10 uM incubated for 48 hrs by sulforhodamine B assay relative to control
PC-3 = experiment: Growth inhibition of human PC-3 cells at 10 uM incubated for 48 hrs by sulforhodamine B assay relative to control
LOX IMVI = experiment: Growth inhibition of human LOX IMVI cells at 10 uM incubated for 48 hrs by sulforhodamine B assay relative to control
MDA-MB-468 = experiment: Growth inhibition of human MDA-MB-468 cells at 10 uM incubated for 48 hrs by sulforhodamine B assay relative to control
MDA-MB-231 = experiment: Growth inhibition of human MDA-MB-231 cells at 10 uM incubated for 48 hrs by sulforhodamine B assay relative to control
Hs-578T = experiment: Growth inhibition of human Hs-578T cells at 10 uM incubated for 48 hrs by sulforhodamine B assay relative to control
NCI/ADR-RES = experiment: Growth inhibition of human NCI/ADR-RES cells at 10 uM incubated for 48 hrs by sulforhodamine B assay relative to control
DU-145 = experiment: Growth inhibition of human DU-145 cells at 10 uM incubated for 48 hrs by sulforhodamine B assay relative to control
UO-31 = experiment: Growth inhibition of human UO-31 cells at 10 uM incubated for 48 hrs by sulforhodamine B assay relative to control
MCF7 = experiment: Growth inhibition of human MCF7 cells at 10 uM incubated for 48 hrs by sulforhodamine B assay relative to control
SK-MEL-28 = experiment: Growth inhibition of human SK-MEL-28 cells at 10 uM incubated for 48 hrs by sulforhodamine B assay relative to control
SK-MEL-5 = experiment: Growth inhibition of human SK-MEL-5 cells at 10 uM incubated for 48 hrs by sulforhodamine B assay relative to control

O=C(CNC1CCCCC1)Nc1ccc(-c2nc3ccccc3s2)cc1 gave an inhibition of growth at 10 µM (NCI-H23) of 23.8%, an inhibition of growth at 10 µM (OVCAR-5) of 5.32% and an inhibition of growth at 10 µM (OVCAR-3) of 5.98%. For the same compound, the inhibition of growth at 10 µM (COLO 205) was 4.58%, the inhibition of growth at 10 µM (NCI-H226) was 19.7% and the inhibition of growth at 10 µM (UACC-257) was -4.65%. The inhibition of growth at 10 µM (CCRF-CEM) was 22.7%, the inhibition of growth at 10 µM (RXF 393) was 31.5% and the inhibition of growth at 10 µM (HOP-92) was 51.2%. It also gave an inhibition of growth at 10 µM (HCT-116) of 23%, an inhibition of growth at 10 µM (IGROV-1) of -0.35% and an inhibition of growth at 10 µM (HT-29) of 37.7%. For the same compound, the inhibition of growth at 10 µM (Malme-3M) was -5.44%, the inhibition of growth at 10 µM (MOLT-4) was 45.9% and the inhibition of growth at 10 µM (SNB-75) was 32.7%. It also gave an inhibition of growth at 10 µM (MDA-MB-435) of 9.63%, an inhibition of growth at 10 µM (OVCAR-8) of 0.73% and an inhibition of growth at 10 µM (SF-295) of 14.1%. For the same compound, the inhibition of growth at 10 µM (HL-60(TB)) was 33.2%, the inhibition of growth at 10 µM (HCC 2998) was 12.7% and the inhibition of growth at 10 µM (SNB-19) was 9.04%. It also gave an inhibition of growth at 10 µM (KM12) of 16.1%, an inhibition of growth at 10 µM (NCI-H522) of 4.54% and an inhibition of growth at 10 µM (HCT-15) of 37.1%. For the same compound, the inhibition of growth at 10 µM (M14) was 10.6%, the inhibition of growth at 10 µM (SF-268) was 21.6% and the inhibition of growth at 10 µM (OVCAR-4) was 15.6%. The inhibition of growth at 10 µM (BT-549) was 12.4%, the inhibition of growth at 10 µM (K562) was 50.5% and the inhibition of growth at 10 µM (SN12C) was 13.3%. For the same compound, the inhibition of growth at 10 µM (UACC-62) was 3.76%, the inhibition of growth at 10 µM (TK-10) was -2.86% and the inhibition of growth at 10 µM (SF-539) was 12.5%. It also gave an inhibition of growth at 10 µM (PC-3) of 20.3%, an inhibition of growth at 10 µM (LOX IMVI) of 26.1% and an inhibition of growth at 10 µM (MDA-MB-468) of 64.1%. The inhibition of growth at 10 µM (MDA-MB-231) was 53.8%, the inhibition of growth at 10 µM (Hs-578T) was 15.8% and the inhibition of growth at 10 µM (NCI/ADR-RES) was 11%. The inhibition of growth at 10 µM (DU-145) was 10.7%, the inhibition of growth at 10 µM (UO-31) was 43.5% and the inhibition of growth at 10 µM (MCF7) was 72%. It also gave an inhibition of growth at 10 µM (SK-MEL-28) of 4.77% and an inhibition of growth at 10 µM (SK-MEL-5) of 9.16%.

O=C(CNCc1ccccc1)Nc1ccc(-c2nc3ccccc3s2)cc1 gave an inhibition of growth at 10 µM (NCI-H23) of 9.23%, an inhibition of growth at 10 µM (OVCAR-5) of 12.3% and an inhibition of growth at 10 µM (OVCAR-3) of 8.88%. It also gave an inhibition of growth at 10 µM (COLO 205) of -11.5%, an inhibition of growth at 10 µM (NCI-H226) of 15.8% and an inhibition of growth at 10 µM (UACC-257) of 4.97%. For the same compound, the inhibition of growth at 10 µM (CCRF-CEM) was 9.29%, the inhibition of growth at 10 µM (RXF 393) was -3.76% and the inhibition of growth at 10 µM (HOP-92) was 15.1%. The inhibition of growth at 10 µM (HCT-116) was 5.15%, the inhibition of growth at 10 µM (IGROV-1) was -2.9% and the inhibition of growth at 10 µM (HT-29) was 1.86%. For the same compound, the inhibition of growth at 10 µM (Malme-3M) was -6.22%, the inhibition of growth at 10 µM (MOLT-4) was 12% and the inhibition of growth at 10 µM (SNB-75) was 18%. For the same compound, the inhibition of growth at 10 µM (MDA-MB-435) was 4.91%, the inhibition of growth at 10 µM (OVCAR-8) was -1.99% and the inhibition of growth at 10 µM (SF-295) was 6.24%. It also gave an inhibition of growth at 10 µM (HL-60(TB)) of 3.9%, an inhibition of growth at 10 µM (HCC 2998) of 9.91% and an inhibition of growth at 10 µM (SNB-19) of 2.46%. For the same compound, the inhibition of growth at 10 µM (KM12) was 2.66%, the inhibition of growth at 10 µM (NCI-H522) was 9.64% and the inhibition of growth at 10 µM (HCT-15) was 8.74%. The inhibition of growth at 10 µM (M14) was 3.6%, the inhibition of growth at 10 µM (SF-268) was 3.99% and the inhibition of growth at 10 µM (OVCAR-4) was 2.46%. For the same compound, the inhibition of growth at 10 µM (BT-549) was 1.91%, the inhibition of growth at 10 µM (K562) was 11.6% and the inhibition of growth at 10 µM (SN12C) was 5.25%. The inhibition of growth at 10 µM (UACC-62) was 7.61%, the inhibition of growth at 10 µM (TK-10) was -12% and the inhibition of growth at 10 µM (SF-539) was 17.8%. The inhibition of growth at 10 µM (PC-3) was 19.1%, the inhibition of growth at 10 µM (LOX IMVI) was 3.99% and the inhibition of growth at 10 µM (MDA-MB-468) was 73.3%. It also gave an inhibition of growth at 10 µM (MDA-MB-231) of 16.9%, an inhibition of growth at 10 µM (Hs-578T) of -4.26% and an inhibition of growth at 10 µM (NCI/ADR-RES) of -0.82%. For the same compound, the inhibition of growth at 10 µM (DU-145) was -7.09%, the inhibition of growth at 10 µM (UO-31) was 20.5% and the inhibition of growth at 10 µM (MCF7) was 61.6%. It also gave an inhibition of growth at 10 µM (SK-MEL-28) of 2.7% and an inhibition of growth at 10 µM (SK-MEL-5) of 5.63%.
